These results are taken from patent US8710069B2, “Opioid-nornicotine codrugs combinations for pain management” (University of Kentucky Research Foundation, priority 2008, dated 2014).

For series [1] the following is noted: following peripheral administration of nicotine; cited from earlier work.
The conditions of series [2]: following repeated nicotine dosing; cited from earlier work.
Series [3] concerns Rat. In words: Tail-Flick test after intrathecal (IT) injection, AI 40%, cut-off 10 sec. Format: in vivo. The conditions noted are these: IT nornicotine perchlorate 10 ug/10 ul alone, Day 1, one rat per line, cutoff 10 sec; for Tail-Flick 5 min.: 5 min after injection; for Tail-Flick 10 min.: 10 min after injection; for Tail-Flick 15 min.: 15 min after injection; for Tail-Flick 30 min.: 30 min after injection; for Tail-Flick 45 min.: 45 min after injection; for Tail-Flick 60 min.: 60 min after injection. The protocol:
• Experiment: Tail-Flick—Al at 40%; cut-off 10 sec. • Measurements will be taken at baseline (2×), 5, 10, 15, 30, 45, 60, 90, 120 minutes after drug administration. • Drug Treatment: • […] will be administered in a 10 ul vol., followed by a 10 ul saline flush. • Both R- & S-nornicotine will be tested. • Preparation of Solution: • 10 ug in 10 ul vol. • 100 ug in 100 ul vol. • […]. • 1 mg in 1 ml=10 mg/10 ml vol. • Drug Administration Schedule:
IT—Narnicotine Perchlorate—Day 1 Tail-Flick—IITC Life Science Model 33 Series 8 • Al=40% Cutoff=10 sec. […]
On the technique in general: Thermal pain tests record how soon the animal reacts.

In series [4] the test system is Rat. Format: in vivo. The following applies: IT nornicotine perchlorate 10 ug/10 ul, Day 1. The procedure: • Experiment: Tail-Flick—Al at 40%; cut-off 10 sec. • Measurements will be taken at baseline (2×), 5, 10, 15, 30, 45, 60, 90, 120 minutes after drug administration. • Drug Treatment: • […] will be administered in a 10 ul vol., followed by a 10 ul saline flush. • Both R- & S-nornicotine will be tested. • Preparation of Solution: • 10 ug in 10 ul vol. • 100 ug in 100 ul vol. • […]. • 1 mg in 1 ml=10 mg/10 ml vol. • Drug Administration Schedule: […]

SMILES strings stand for the structures. Where “and” joins values, the source holds several entries; their conditions need not be identical. Equal entries are not always repeated.

`CN1CCCC1c1cccnc1` (stereo not drawn) [nicotine]: the “residence in the rat's brain” value in series [1] is 52 min.
Regarding `c1cncc([C@@H]2CCCN2)c1` [nornicotine], in series [1], the “residence in the rat's brain” value is 166 min and the “residence in the rat's brain, times longer than nicotine” value is given as “about 3 times”. Also, the “accumulation in the brain compared to nicotine” value in series [2] was “about 4 fold”.
Regarding `c1cncc([C@@H]2CCCN2)c1` [S, S-nornicotine], in series [3], the “Tail-Flick 5 min.” value was 9.06 s and 8.01 s and 4.40 s and 8.17 s and 3.84 s; the “Tail-Flick 10 min.” value was 6.39 s and 5.47 s and 5.60 s and 6.21 s and 3.21 s; the “Tail-Flick 15 min.” value was 4.58 s and 4.33 s and 6.08 s and 3.29 s and 3.56 s; the “Tail-Flick 30 min.” value is 6.14 s and 3.31 s and 4.85 s and 3.47 s and 4.05 s. Moreover, in series [3], the “Tail-Flick 45 min.” value is 3.95 s and 3.57 s and 2.23 s and 4.60 s and 4.07 s; the “Tail-Flick 60 min.” value is 4.11 sec and 3.35 sec (2×) and 4.27 sec and 4.26 sec. For the same compound, the “Behavior: side effects” value in series [4] is on record as “no obvious side effects”.
Turning to `c1cncc([C@H]2CCCN2)c1` [R, R-nornicotine], in series [3], the “Tail-Flick 5 min.” value was 3.04 s and 5.00 s and 5.47 s and 2.16 s and 6.67 s; the “Tail-Flick 10 min.” value is 2.23 s and 4.08 s and 2.53 s and 1.80 s and 5.95 s; the “Tail-Flick 15 min.” value was 3.16 sec and 4.34 sec and 2.82 sec (2×) and 2.86 sec; the “Tail-Flick 30 min.” value is 2.55 s and 3.13 s and 3.90 s and 2.73 s and 4.14 s. Further, in series [3], the “Tail-Flick 45 min.” value was 3.13 s and 2.87 s and 4.26 s and 2.40 s and 4.95 s; the “Tail-Flick 60 min.” value is 2.19 s and 2.75 s and 3.12 s and 2.63 s and 3.93 s. For the same compound, in series [4], the “Behavior: side effects” value was “no noticeable side effects”.
